Here are results for 38 compounds from ChEMBL document CHEMBL3507680, “University of Dundee, Gates Library screen for HepG2 cell viability”.

This data set is described as follows: Human HepG2 cell viability assay in 384 well format. Type of data set: toxicity, cell-based. Also on record: dose 125 nL, time 70.5 hour; cytotoxicity at 70.5 h: concentration not given beside the values. The note with it: HepG2 cells, read-out: Inhibition.

Consider `CC(C)N1CCC(N2CCN(C3CCCCC3)CC2CCO)CC1` (stereo not drawn), for which the cytotoxicity at 70.5 h was -10.5%.

As for `Cc1nc(N(C)C)nc(-c2cccc(-c3ccn(CCCF)n3)c2)c1C`, the cytotoxicity at 70.5 h was -10.9%.

In the case of `CCOCCC(=O)N1Cc2cnc(-c3ccccc3)nc2C1`, the cytotoxicity at 70.5 h is -12.5%. With `CCN(CC)Cc1nc(Cc2cccc(C(F)(F)F)c2)no1` the figure was -7.89%. With `COC[C@H]1CCCN1c1nccc(-c2cnn(-c3ccccc3C)c2)n1`, the cytotoxicity at 70.5 h is -1.39%. Take `CCS(=O)(=O)c1ncc(CN(C)Cc2ccc(C)o2)n1CCOC`: the cytotoxicity at 70.5 h amounted to 17.1%.

As to `CSCc1ccc(N2CCN(c3ccc(Cl)cn3)CC2)nc1`, the cytotoxicity at 70.5 h is 3.63%. With `Cc1cccc(CN2CCN(c3nc(CO)cs3)CC2)c1`, the cytotoxicity at 70.5 h is -4.76%. The value for `COCCN1CCC(CNC(=O)Nc2ccc(SC(F)(F)F)cc2)C1` (stereo not drawn) was -1.27%; that for `O=C(Nc1ccccc1CCc1ccccn1)NC1CCOCC1` was 0.573%. Turning to `Cc1cnc(NCC(C)(C)N2CCN(C)CC2)nc1`, the cytotoxicity at 70.5 h is -0.355%. The value for `CCC[C@@H]1CN(Cc2ccc(C(F)(F)F)nc2)C[C@H]1C(=O)O` was -8.04%. With `CC(C)c1cc(C(=O)N2C[C@H]3CC[C@@H]2CN(Cc2ccccn2)C3)no1` the figure was -7.13%; with `COc1ccc2c(C)nc(N3CCN([C@H]4CCCC[C@@H]4O)CC3)nc2c1`, 18.8%. The value for `COCCN1C(=O)[C@H]2CC[C@@H]1CN(S(=O)(=O)c1ccc(OC)cc1)C2` was -3.09%; that for `CCSc1ncc(-c2cc(C3CCC3)nc(N)c2C#N)cn1` was 9.11%. As for `Cc1ccccc1C1CCN(CCn2cc(-c3cccc(O)c3)nn2)C1` (stereo not drawn), the cytotoxicity at 70.5 h is 29.4%. The value for `O=C(CCN1CCCC1c1ccccn1)N1CCc2ccccc2C1` (stereo not drawn) was -16.1%; that for `CCOc1ccc(C(=O)CCC(=O)N(C)Cc2nc(C)c[nH]2)cc1C` was -19.8%. With `COc1ccccc1-c1ncc(CN2C[C@@H](N(C)C)[C@H](C(C)C)C2)s1` the figure was -5.83%; with `CS(=O)(=O)NCCC(=O)NCc1cccnc1-n1cnc2ccccc21`, -12.6%; with `CN(C)C(=O)N1CCCC(C(=O)N(C)CCCc2cnn(C)c2)C1` (stereo not drawn), -11.5%.

On to `CN1CCN(C[C@@H]2CN(C(=O)CC3CCCCC3)C[C@@H]2CO)CC1`, for which the cytotoxicity at 70.5 h is 0.234%. With `CN(CCCO)C(=O)c1cc(COc2ccc3c(c2)CCCC3)on1` the figure was -7.55%. With `CCc1c(O)nc(SCC(=O)Nc2ccccc2)n(C(C)CC)c1=O` (stereo not drawn) the figure was 22%.

As for `O=C(CCc1nc(Cl)n[nH]1)NC1CCCN(C2Cc3ccccc3C2)C1` (stereo not drawn), the cytotoxicity at 70.5 h was -9.23%. With `Cc1nc(CNC(=O)c2cc(COc3ccccc3)[nH]n2)n[nH]1` the figure was -5.91%; with `COc1ccc(CN2CCCC2)cc1Oc1ccc(NC(C)=O)cc1`, -3.35%.

Take `Cc1cnc(C(=O)N2C[C@H]3CC[C@@H]2CN(c2cnccn2)C3)cn1`: the cytotoxicity at 70.5 h is -2.4%.

Take `Cc1nc(N2CCN(C)CC2)ncc1C(=O)N1C[C@@H](C)[C@@](C)(O)C1`: the cytotoxicity at 70.5 h worked out at 4.1%. With `CN(C)[C@H]1CCCCN(Cc2cnc(NCc3ccccc3)nc2)C1` the figure was -1.39%. Consider `CN1CCCN(Cc2nc(Cc3ccccc3)n[nH]2)CC1`, for which the cytotoxicity at 70.5 h is -3.87%.

With `CC(C)N1CC2(CCC1=O)CCN(c1ccnc3ccccc13)CC2`, the cytotoxicity at 70.5 h amounted to 41.8%. The value for `CCc1nc(N)sc1C(=O)N1CCCC(COc2cccc(C)c2)C1` (stereo not drawn) was -0.442%.

Consider `CNC(=O)[C@@H]1C[C@@H](NC(=O)Cc2cccs2)CN1C1CCOCC1`, for which the cytotoxicity at 70.5 h is -3.22%. Take `c1cnc(N2CCC3(CCCN(CC4CCCCC4)C3)C2)cn1` (stereo not drawn): the cytotoxicity at 70.5 h is -11.2%. With `CSc1ccc(-c2nc(CN3CCNCC3C)c(C)o2)cc1` (stereo not drawn) the figure was 3%; with `CCOc1ccc(CCCC(=O)N2CCC(c3nnn[nH]3)CC2)cc1C`, -11.9%.
